Source: patent US9334280B2, “Synthetic rigidin analogues as anticancer agents, salts, solvates and prodrugs thereof, and method of producing same” (New Mexico Technical Research Foundation, priority 2012, dated 2016)
Read-outs that look alike come from different tables or passages of the source.

Tests used:
HeLa and MCF-7 cells = experiment: MTT antiproliferative activity, statements for HeLa and MCF-7; format: cell-based, human; conditions: HeLa and MCF-7, 48 h
Method: (§1) To evaluate antiproliferative properties of the compounds of Formula I, mitochondrial dehydrogenase activities were measured using the MTT assay. The cell lines were prepared by trypsinizing and seeding […] cells per well into microplates. All compounds were reconstituted in dimethyl sulfoxide (DMSO) at a concentration of either 100 mM or 25 mM prior to treatment. The cells were grown for 24 hrs before treatment at concentrations ranging from 0.004 to 100 microM and incubated for 48 hrs in 200 microL media. 20 microL of MTT reagent in serum free medium (5 mg/mL) was added to each well and incubated further for 2 hrs. Media was removed and the resulting formazan crystals were re-solubilized in 100 microL of DMSO and the optical density (OD) was measured using a Thermomax Molecular Device plate reader at a wavelength of 490 nm. The experiments were performed in quadruplicate and repeated at least twice for each compound per cell line. Cells treated with 0.1% DMSO were used as a negative control, while phenyl arsine oxide (PAO) was used as a positive killing control.
The obtained compounds were evaluated for antiproliferative activities using the HeLa cell line as a model for human cervical adenocarcinoma and MCF-7 cells as a model for breast adenocarcinoma. The cells were treated with each compound for 48 h, and cell viability was assessed using the MTT method (Table 5).
(§2) To evaluate antiproliferative properties of the synthesized compounds, the MTT assay was used. The cell lines were assessed by trypsinizing each cell line and seeding 4×10^3 cells per well into 96-well plates. All compounds were dissolved in DMSO at a concentration of either 100 mM or 50 mM prior to cell treatment. The cells were grown for 24 h and then treated with compounds at concentrations ranging from 0.04 to 100 μM and incubated for 48 h in 200 μL media. 20 μL of MTT reagent in serum free medium (5 mg/mL) was added to each well and incubated further for 2 h. Media was removed, and the resulting formazan crystals were re-solubilized in 200 μL of DMSO. A490 was measured using a Thermomax Molecular Device plate reader. The experiments were performed in quadruplicate and repeated at least twice for each compound per cell line. Cells treated with 0.1% DMSO were used as a control, and 1 μM phenyl arsine oxide (PAO) was used as a positive killing control.

[1] = tested on: MCF-7 mammary gland adenocarcinoma cells; experiment: MTT antiproliferative assay, MCF-7; format: cell-based; conditions: Homo sapiens, MCF7, 48 h, MTT, ± SD
Method: (§3) Human T-cell leukemia cell line Jurkat (ATCC TIB-152, E6-1 clone) was cultured in RPMI-1640 (Invitrogen) supplemented with 10% FBS (Invitrogen), 100 mg/L penicillin G, 100 mg/L streptomycin, 1.0 mM sodium pyruvate, 1.5 g/L sodium bicarbonate, and 4.5 g/L glucose (all from Sigma). Human cervical cancer cell line HeLa (ATCC S3) was cultured in DMEM (Invitrogen) supplemented with 10% FBS, 100 mg/L penicillin G, and 100 mg/L streptomycin. MCF-7 (human mammary carcinoma) cells were cultured in DMEM supplemented with 1.0 mM sodium pyruvate, 1% GlutaMax™-1 (Invitrogen), 100 μg/mL penicillin, 100 μg/mL streptomycin, and 10% FBS. Human uterine sarcoma MES-SA and MES-SA/Dx5 cells were cultured in RPMI-1640 medium supplemented with 10% FBS, 100 mg/L penicillin G and 100 mg/L streptomycin. All cells were incubated at 37° C. in a humidified atmosphere with 5% CO2. The other cell lines were maintained in a similar fashion as previously described.
as §1
(§4) Human cancer cell lines were obtained from the American Type Culture Collection (ATCC, Manassas, Va., USA), the European Collection of Cell Culture (ECACC, Salisbury, UK) and the Deutsche Sammlung von Mikroorganismen and Zellkulturen (DSMZ, Braunschweig, Germany). Human cervical adenocarcinoma HeLa cells were cultured in DMEM supplemented with 10% fetal bovine serum (FBS). Human mammary carcinoma MCF-7 cells were cultured in RPMI supplemented with 10% FBS. The U87 and U373 cells were cultured in DMEM culture medium (Lonza code 12-136F, Vervier, Belgium), while the SKMEL-28 and A549 cells were cultured in RPMI culture medium (Lonza; code 12-115F) supplemented with 10% heat-inactivated FBS (Lonza, FBS South America code DE14-801F). […] All cell lines were cultured in T25 flasks, maintained and grown at 37° C., 95% humidity, 5% CO2.
as §2

[2] = tested on: MES-SA/Dx5 uterine sarcoma cells (overexpress p-gp); experiment: MTT antiproliferative assay, MDR MES-SA/Dx5; format: cell-based, human; conditions: MES-SA/Dx5 vs MES-SA
Method: as §3, §1
The cells of such tumors are referred to as multidrug resistant (MDR). Thus, we assessed the compounds of Formula I for antiproliferative activity in an MDR cancer cell line. This was done using the uterine sarcoma cells, MES-SA/Dx5, which overexpress p-gp. The parental drug-responsive MES-SA cell line was used as control.

[3] = tested on: HeLa cervical adenocarcinoma cells; experiment: MTT antiproliferative assay, HeLa; format: cell-based; conditions: Homo sapiens, MTT, ± SD
Method: as §3, §1, §4, §2

[4] = tested on: A549 non-small-cell lung cancer cells; experiment: MTT antiproliferative assay, A549; format: cell-based; conditions: Homo sapiens, Table 6, 48 h, ± SD, read-out: GI50 in vitro Values, A549
Method: as §1, §4, §2

U-87 glioblastoma cells = experiment: MTT antiproliferative assay, U-87; format: cell-based; conditions: Homo sapiens, Table 6, 48 h, ± SD, read-out: GI50 in vitro Values, U-87
Method: as §4, §2

HeLa cells = experiment: Flow cytometric cell cycle analysis (Vybrant Orange); format: cell-based, human; conditions: 0.1 μM, 24 h
Method: To assess the effects of the analogues on the cell cycle, cell cycle analysis was performed. 70-80% confluent HeLa cells were trypsinized and seeded at an initial density of 2×10^5 cell per well into 6 well plates in DMEM supplemented with 10% FBS, 100 mg/L penicillin G and 100 mg/L streptomycin. The cells were allowed to adhere overnight and before treatment with compounds of Formula I at concentrations ranging from 0.1 to 10 microM. After 24 hrs, the cells were washed 3× with DMEM, trypsinized, pelleted, and re-suspended in 200 microL of culture medium containing 10 microM (2 microL/mL) vybrant orange dye. The samples in the labeling solution were transferred into Falcon tubes and incubated in a water bath for 30 mins at 37° C. The samples were then analyzed using a Becton Dickinson FACscan flow cytometer with CellQuest software. A 488 nm laser was utilized using parameters that can be found in Appendix B; 10,000 events were collected for analysis. Cells treated with 0.1% DMSO were used as a negative control and cells treated with colchicine were used as a positive control.
In further anticancer evaluation of compounds of Formula I cell cycle analysis was performed using the cell permeable DNA binding dye Vybrant Orange. In a normal population, cells are distributed among the three major phases of the cell cycle, G0/G1 in which there is one set of paired chromosomes per cell (2n), followed by the S or synthesis phase in which DNA is synthesized in preparation for division (there is a variable amount of DNA present during this phase) and finally G2/M phase in which the chromosomes of each cell have now been duplicated (4n). This DNA content can be measured using fluorescent DNA selective probes such as Vybrant Orange that produce signals that are proportional to DNA mass per cell. This dye interacts with double stranded DNA (dsDNA) in living cells and becomes fluorescent upon binding and thus can be used to track DNA content as cells progress through the various phases of the cell cycle using flow cytometry. Cell cycle analysis was performed on HeLa cells using Rig8 at various concentrations above and below the respective GI50. Since colchicine is a known antimitotic drug, it was utilized as a positive control, while HeLa cells treated with 0.1% DMSO were used as a negative control. FIG. 6 illustrates the results of this analysis using Rig 8 on HeLa cells.

[5] = Table 5, read-out: cell viability GI50, MCF-7
[6] = Table 5, 48 h, read-out: cell viability GI50, HeLa
[7] = Table 6, read-out: GI50 in vitro Values, MCF-7
[8] = Table 6, 48 h, read-out: GI50 in vitro Values, HeLa

Row | GI50 [1, 5] [nM] | GI50 [3, 6] [nM] | GI50 [4] [nM] | GI50 (U-87 glioblastoma cells) [nM] | GI50 [1, 7] [nM] | GI50 [3, 8] [nM] | Compound | antiproliferative activity (potency in words) (HeLa and MCF-7 cells) | other results
1 | 45 ± 1 | – | – | – | – | – | C#CCCCc1nc(=O)c2c(-c3ccccc3)c(C(=O)c3ccccc3)[nH]c2[nH]1 [Compound 17, 6-Benzoyl-2-(pent-4-ynyl)-5-phenyl-1H-pyrrolo[2,3-d]pyrimidin-4(7H)-one] | nanomolar | –
2 | – | – | 650 ± 190 | 940 ± 120 | 270 ± 30 | 290 ± 10 | Cc1nc(=O)c2c(-c3cccc(Br)c3)c(C(=O)c3ccccc3)[nH]c2[nH]1 [Compound 19, 6-Benzoyl-5-(3-bromophenyl)-2-methyl-1H-pyrrolo[2,3-d]pyrimidin-4(7H)-one] | – | –
3 | – | – | 1000 ± 900 | 1700 ± 100 | 360 ± 20 | 290 ± 30 | Cc1nc(=O)c2c(-c3cccc(F)c3)c(C(=O)c3ccccc3)[nH]c2[nH]1 [Compound 20, 6-Benzoyl-5-(3-fluorophenyl)-2-methyl-1H-pyrrolo[2,3-d]pyrimidin-4(7H)-one] | – | –
4 | – | – | 600 ± 230 | 900 ± 160 | 230 | 270 ± 10 | Cc1nc(=O)c2c(-c3cccc(Cl)c3)c(C(=O)c3ccccc3)[nH]c2[nH]1 [Compound 18, 6-Benzoyl-5-(3-chlorophenyl)-2-methyl-1H-pyrrolo[2,3-d]pyrimidin-4(7H)-one] | – | –
5 | 35 ± 3 | 29 ± 1 | 250 ± 10 | 77 ± 2 | 35 ± 3 | 29 ± 1 | Cc1nc(=O)c2c(-c3ccccc3)c(C(=O)c3ccccc3)[nH]c2[nH]1 [Compound 13, 6-Benzoyl-2-methyl-5-phenyl-1H-pyrrolo[2,3-d]pyrimidin-4(7H)-one] | nanomolar | –
6 | – | – | 380 ± 80 | 720 ± 60 | 270 ± 10 | 290 ± 10 | Cc1nc(=O)c2c(-c3cc(Br)cc(Br)c3)c(C(=O)c3ccccc3)[nH]c2[nH]1 [Compound 23, 6-Benzoyl-5-(3,5-dibromophenyl)-2-methyl-1H-pyrrolo[2,3-d]pyrimidin-4(7H)-one] | – | –

Continued, molecule first:

Row | Compound | GI50 [1, 5] [nM] | GI50 [3, 6] [nM] | GI50 [4] [nM] | GI50 (U-87 glioblastoma cells) [nM] | GI50 [1, 7] [nM] | GI50 [3, 8] [nM] | antiproliferative activity (potency in words) (HeLa and MCF-7 cells) | other results
7 | CC[C@]1(O)C[C@@H]2CN(CCc3c([nH]c4ccccc34)[C@@](C(=O)OC)(c3cc4c(cc3OC)N(C)[C@H]3[C@@](O)(C(=O)OC)[C@H](OC(C)=O)[C@]5(CC)C=CCN6CC[C@]43[C@@H]65)C2)C1 [Vinblastine, reference compound] | – | – | – | – | – | – | – | times less potent against the MDR cells compared with the parental MES-SA cells [2]: ca. 1000 times
8 | O=C(c1ccccc1)c1[nH]c2[nH]c(-c3ccccn3)nc(=O)c2c1-c1ccccc1 [Compound 5] | 2500 ± 300 | 2700 ± 200 | – | – | – | – | double to single digit micromolar | –
9 | CCOc1nc(=O)c2c(-c3ccccc3)c(C(=O)c3ccccc3)[nH]c2[nH]1 [Compound 8] | 10400 ± 800 | 11100 ± 400 | – | – | – | – | double to single digit micromolar | –
10 | CC(=O)O[C@H]1C(=O)[C@@]2(C)[C@H]([C@H](OC(=O)c3ccccc3)[C@]3(O)C[C@H](OC(=O)[C@H](O)[C@@H](NC(=O)c4ccccc4)c4ccccc4)C(C)=C1C3(C)C)[C@]1(OC(C)=O)CO[C@@H]1C[C@@H]2O [Taxol, reference compound] | – | – | – | – | – | – | – | times less potent against the MDR cells compared with the parental MES-SA cells [2]: ca. 1000 times
11 | O=C(c1ccccc1)c1[nH]c2[nH]c(-c3ccco3)nc(=O)c2c1-c1ccccc1 [Compound 6] | 23100 ± 500 | 18400 ± 1800 | – | – | – | – | double to single digit micromolar | –
12 | CC(C)c1nc(=O)c2c(-c3ccccc3)c(C(=O)c3ccccc3)[nH]c2[nH]1 [Compound 9] | 8300 ± 800 | 9100 ± 300 | – | – | – | – | double to single digit micromolar | –
13 | COc1cc2c(c(OC)c1OC)-c1ccc(OC)c(=O)cc1[C@@H](NC(C)=O)CC2 [Colchicine, reference compound] | – | – | – | – | – | – | – | % Relative DNA Content, G0/G1 (HeLa cells): 28.7 ± 1.2%; % Relative DNA Content, G2/M (HeLa cells): 53.6 ± 1.3%; % Relative DNA Content, S (HeLa cells): 15.7 ± 1.9%
